From ChEMBL document CHEMBL4316654, “Prenylated Acylphloroglucinols from Hypericum faberi” (J Nat Prod, 2019)

Legend:
Format in all cases: functional, cell-based
PANC-1 = test: Cytotoxicity against human PANC1 cells incubated for 48 hrs by MTT assay; conditions: PANC-1, 48 h
[1] = Cytotoxicity against human BIU87 cells incubated for 48 hrs by MTT assay; conditions: BIU87, 48 h
ECa-109 cell line = test: Cytotoxicity against human ECA109 cells incubated for 48 hrs by MTT assay; conditions: ECa-109, 48 h

## CC(C)=CCC/C(C)=C/Cc1c(O)c(C(=O)C(C)C)c2oc(-c3ccc(O)cc3)cc2c1O
PANC-1
  IC50: 9 µM

## CCC(C)C(=O)c1c(O)c(C/C=C(\C)CCC=C(C)C)c(O)c2cc(-c3ccccc3)oc12 (stereo not given)
PANC-1
  IC50: 6.2 µM

## CC(=O)O[C@H]1C(=O)[C@@]2(C)[C@H]([C@H](OC(=O)c3ccccc3)[C@]3(O)C[C@H](OC(=O)[C@H](O)[C@@H](NC(=O)c4ccccc4)c4ccccc4)C(C)=C1C3(C)C)[C@]1(OC(C)=O)CO[C@@H]1C[C@@H]2O [PACLITAXEL]
[1]
  IC50: 2.1 µM
PANC-1
  IC50: 3.5 µM
ECa-109 cell line
  IC50: 1.2 µM
